Measured values from patent publication US11667616B2, “Oral GSNOR inhibitor and pharmaceutical use thereof” (NANJING MEDICAL UNIVERSITY, priority 2020, dated 2023).

Key:
[1] = tested on: human aortic smooth muscle cells (HASMCs); assay: Contractile/synthetic marker expression in angiotensin II-treated smooth muscle cells; type: cell-based; conditions: angiotensin II 1 μM, 10 nM, 24 hours
Excerpt: Then, cellular RNA were extracted to detect contractile/synthetic markers of smooth muscle cells.

[2] = tested on: HUVECs; assay: Endothelial cell sphere sprouting under high glucose; type: cell-based, Human; conditions: high glucose 30 mM, 10 nM, 24 h
Excerpt: (§1) FIG. 3A, FIG. 3B and FIG. 3C show study of the in-vitro activity of the subject compound 1 against diabetic vascular complications.

[3] = tested on: C57BL/6J mice with β-aminopropionitrile-induced aortic aneurysm/dissection; assay: β-aminopropionitrile-induced aortic aneurysm/dissection model; type: in vivo
[4] = tested on: HUVECs; assay: Endothelial cell tube formation under high glucose; type: cell-based, Human; conditions: high glucose 30 mM, 10 nM, 24 h
Excerpt: It is known that in the diabetic vascular complications, decreased angiogenesis and increased vascular endothelial permeability are among the risk factors causing local edema, ischemia followed by ulcer and amputation.
as §1

[5] = target: T1, GSNOR (Homo sapiens, UniProt P11766); assay: GSNOR activity in lysate of treated HUVECs (NADH consumption at 340 nm); type: cell-based; conditions: for activities in in-vitro studies: relative to N6022
T1 construct: the cell lysate supernatants were treated with a substrate GSNO and a coenzyme NADH; endogenous in cells; host or cells: HUVEC (human umbilical vein endothelial cells)
T1 sequence (P11766 whole entry): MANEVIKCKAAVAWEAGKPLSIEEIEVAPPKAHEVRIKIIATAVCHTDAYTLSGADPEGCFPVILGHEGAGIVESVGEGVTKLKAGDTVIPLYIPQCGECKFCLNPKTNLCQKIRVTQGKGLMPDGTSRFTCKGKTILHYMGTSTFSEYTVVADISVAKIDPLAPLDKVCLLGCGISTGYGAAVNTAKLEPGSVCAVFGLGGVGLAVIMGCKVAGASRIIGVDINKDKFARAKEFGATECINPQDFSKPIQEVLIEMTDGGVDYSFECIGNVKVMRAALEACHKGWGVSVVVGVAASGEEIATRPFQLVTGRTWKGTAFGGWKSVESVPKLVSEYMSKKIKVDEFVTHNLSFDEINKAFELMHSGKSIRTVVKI
Excerpt: GSNOR plays a crucial regulatory role in asthma and cystic fibrosis.

[6] = tested on: HUVECs; assay: Endothelial cell permeability under high glucose; type: cell-based, Human; conditions: high glucose 30 mM, 10 nM, 24 h
Excerpt: as §1

[7] = tested on: diabetic C57BL/6J mice with lateral limb ischemia; assay: Streptozotocin diabetes + lateral limb ischemia model; type: in vivo
Experimental: To generate diabetes model, mice at week 8 were intraperitoneally injected with streptozotocin (60 mg/kg/day) for consecutive 5 days, then the modeling was identified as a success if the blood glucose was measured to be greater than 16.6 mmol/L at week 10. […] The gastrocnemius muscles of the ischemic lateral limbs of the mice were isolated for frozen section, and immunofluorescence (platelet-endothelial cell adhesion molecule, CD31) was used to detect the angiogenesis (FIG. 6B); and the semimembranosus muscles were isolated for frozen section, and immunofluorescence (α-smooth muscle actin, α-SMA) was used to detect the arteriogenesis (FIG. 6B).

[8] = Pharmacokinetic study, plasma concentration by LC-MS/MS; type: in vivo, ICR mice; conditions: ICR, mouse; for half-life: read-out: drug half-life period (converted)
Excerpt: Then, the plasma concentration was detected by LC-MS/MS at hour 0.083, 0.25, 0.5, 1, 2, 4, 8 and 24 respectively (FIG. 5).

[9] = gavage 6 mg/kg/day vs N6022 iv 1 mg/kg/day, N6022-1 gavage 5.6 mg/kg/day, N6022-2 gavage 5.3 mg/kg/day
[10] = gavage 6 mg/kg/day, β-aminopropionitrile drinking water 28 days

SMILES | decrease in the expression of the contractile markers (actin α2, calmodulin 1, transgelin) due to angiotensin II [1] | increase in the expression of the synthetic markers (osteopontin, Kruppel-like factor 4, Kruppel-like factor 5) due to angiotensin II [1] | sprouting ability of the endothelial cells [2] | effect on aortic aneurysm/dissection compared with controls [3, 9] | expansion of the aortic diameter [3, 10] | mortality rate of the mice [3, 10] | angiogenesis ability of endothelial cells (tube formation) [4] | inhibitory effect on the GSNOR activity ([5]; 10 nM, 24 hours, HUVECs, lysate + GSNO + NADH) | activities in in-vitro studies [5] | permeability of the endothelial cells [6] | angiogenesis of the ischemic lateral limbs of the diabetic mice (CD31, α-SMA) ([7]; gavage 6 mg/kg/day after operation) | effect on diabetic limb ischemia compared with controls [7, 9] | blood flow recovery of the lateral limbs (laser speckle imaging) ([7]; gavage 6 mg/kg/day, day 0, 7 and 14) | bioavailability ([8]; po) [%] | half-life [8] [h]
Cc1cc(C(N)=O)ccc1-n1c(CCC(=O)N2CCSC2=O)ccc1-c1ccc(-n2ccnc2)cc1 [subject compound 1, s4-(2-(4-(1H-imidazol-1-yl)phenyl)-5-(3-oxo-3-(2-oxothiazolidin-3-yl)propyl)-1H-pyrrol-1-yl)-3-methylbenzamide] | obviously inhibit | obviously inhibit | improve sprouting ability | equivalent effect to the group intravenously injected with N6022 | inhibited | inhibited | obviously improve | equivalent to N6022 | good activity in vitro | modify the permeability | obviously promote | equivalent effect to the group intravenously injected with N6022 | restore blood flow | 60.1 ± 7.91 | 1.62 ± 0.81
CCOC(=O)CCc1ccc(-c2ccc(-n3ccnc3)cc2)n1-c1ccc(C(N)=O)cc1C [N6022-2] | – | – | – | – | – | – | – | – | significantly reduced | – | – | – | – | – | –
Cc1cc(C(N)=O)ccc1-n1c(CCC(N)=O)ccc1-c1ccc(-n2ccnc2)cc1 [N6022-1] | – | – | – | – | – | – | – | – | significantly reduced | – | – | – | – | – | –
Cc1cc(C(N)=O)ccc1-n1c(CCC(=O)O)ccc1-c1ccc(-n2ccnc2)cc1 [N6022, 3-(5-(4-(1H-imidazol-1-yl)phenyl)-1-(4-carbamoyl-2-methylphenyl)-1H-pyrrol-2-yl) propanoic acid, reference compound] | obviously inhibit | obviously inhibit | – | – | – | – | obviously improve | – | – | – | – | – | – | – | 0.76 ± 0.15
